Data from PubChem BioAssay AID1919016 (Molecular Pharmacology Branch, DTP, NCI, 2023).
Several values for one entry are separate records, joined by “and”; a condition that tells them apart may be missing. Equal values may be shown once.

System: NCI-H196 complex spheroid growth, percent test/control
Assay: Anticancer human tumor NCI-H196 cell line growth inhibition [AhR];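 note: seven days of drug exposure starting three days after plating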;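 for viability, T/C: 100% = DMSO vehicle control wells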
Details: for viability, T/C: stronger effect = lower value
In short: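 Complex tumor spheroids co-cultured with HUVEC and human MSC stroma; AhR antagonists tested in combination with standard-of-care and investigational agents. Top concentration at or near clinical Cmax (else 10 microM), half-log dilutions; growth expressed as percent test/control.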

[1] = curve of first compound, second compound 0.1 µM
[2] = curve of first compound, second compound 0.316 µM
[3] = curve of first compound, second compound 1 µM
[4] = curve of first compound, second compound 3.16 µM
[5] = curve of first compound, second compound 10 µM
[6] = second compound 0.1 µM, first compound 0.00316 µM
[7] = second compound 0.1 µM, first compound 0.01 µM
[8] = second compound 0.1 µM, first compound 0.0316 µM
[9] = second compound 0.1 µM, first compound 0.1 µM
[10] = second compound 0.316 µM, first compound 0.00316 µM
[11] = second compound 0.316 µM, first compound 0.01 µM
[12] = second compound 0.316 µM, first compound 0.0316 µM
[13] = second compound 0.316 µM, first compound 0.1 µM
[14] = second compound 1 µM, first compound 0.00316 µM
[15] = second compound 1 µM, first compound 0.01 µM
[16] = second compound 1 µM, first compound 0.0316 µM
[17] = second compound 1 µM, first compound 0.1 µM
[18] = second compound 3.16 µM, first compound 0.00316 µM
[19] = second compound 3.16 µM, first compound 0.01 µM
[20] = second compound 3.16 µM, first compound 0.0316 µM
[21] = second compound 3.16 µM, first compound 0.1 µM
[22] = second compound 10 µM, first compound 0.00316 µM
[23] = second compound 10 µM, first compound 0.01 µM
[24] = second compound 10 µM, first compound 0.0316 µM
[25] = second compound 10 µM, first compound 0.1 µM
[26] = second compound 0.1 µM, first compound 0.316 µM
[27] = second compound 0.1 µM, first compound 1 µM
[28] = second compound 0.1 µM, first compound 3.16 µM
[29] = second compound 0.1 µM, first compound 10 µM
[30] = second compound 0.316 µM, first compound 0.316 µM
[31] = second compound 0.316 µM, first compound 1 µM
[32] = second compound 0.316 µM, first compound 3.16 µM
[33] = second compound 0.316 µM, first compound 10 µM
[34] = second compound 1 µM, first compound 0.316 µM
[35] = second compound 1 µM, first compound 1 µM
[36] = second compound 1 µM, first compound 3.16 µM
[37] = second compound 1 µM, first compound 10 µM
[38] = second compound 3.16 µM, first compound 0.316 µM
[39] = second compound 3.16 µM, first compound 1 µM
[40] = second compound 3.16 µM, first compound 3.16 µM
[41] = second compound 3.16 µM, first compound 10 µM
[42] = second compound 10 µM, first compound 0.316 µM
[43] = second compound 10 µM, first compound 1 µM
[44] = second compound 10 µM, first compound 3.16 µM
[45] = second compound 10 µM, first compound 10 µM

Compound: CC[C@@]1(O)C(=O)OCc2c1cc1n(c2=O)Cc2cc3c(CN(C)C)c(O)ccc3nc2-1 + CC(CO)NC(=O)c1cc(-c2ccc(Cl)cc2)nn(-c2cnn(C)c2)c1=O
- IC50 [1]: > 100 nM
- IC50 [2]: > 100 nM
- IC50 [3]: > 100 nM
- IC50 [4]: > 100 nM
- IC50 [5]: > 100 nM
- viability, T/C (second compound 0.1 µM, first compound 0.000316 µM): 104%
- viability, T/C (second compound 0.1 µM, first compound 0.001 µM): 101%
- viability, T/C [6]: 97.8%
- viability, T/C [7]: 97%
- viability, T/C [8]: 111%
- viability, T/C [9]: 119%
- viability, T/C (second compound 0.316 µM, first compound 0.000316 µM): 111%
- viability, T/C (second compound 0.316 µM, first compound 0.001 µM): 110%
- viability, T/C [10]: 105%
- viability, T/C [11]: 105%
- viability, T/C [12]: 111%
- viability, T/C [13]: 129%
- viability, T/C (second compound 1 µM, first compound 0.000316 µM): 98.6%
- viability, T/C (second compound 1 µM, first compound 0.001 µM): 108%
- viability, T/C [14]: 116%
- viability, T/C [15]: 100%
- viability, T/C [16]: 113%
- viability, T/C [17]: 119%
- viability, T/C (second compound 3.16 µM, first compound 0.000316 µM): 110%
- viability, T/C (second compound 3.16 µM, first compound 0.001 µM): 111%
- viability, T/C [18]: 114%
- viability, T/C [19]: 96.8%
- viability, T/C [20]: 120%
- viability, T/C [21]: 118%
- viability, T/C (second compound 10 µM, first compound 0.000316 µM): 111%
- viability, T/C (second compound 10 µM, first compound 0.001 µM): 112%
- viability, T/C [22]: 116%
- viability, T/C [23]: 103%
- viability, T/C [24]: 113%
- viability, T/C [25]: 124%

Compound: CC(CO)NC(=O)c1cc(-c2ccc(Cl)cc2)nn(-c2cnn(C)c2)c1=O (configuration not stated)
- viability, T/C (compound 1 µM): 105% [middle of 21 runs]
- viability, T/C (compound 3.16 µM): 106% [middle of 19 runs]
- IC50 (compound alone, run of 08/08/2022): > 10000 nM

Compound: COc1cc(Nc2ncc3c(n2)-c2ccc(Cl)cc2C(c2c(F)cccc2OC)=NC3)ccc1C(=O)O + Cc1cncc(-c2nc(NCCc3c[nH]c4ccccc34)c3ncn(C(C)C)c3n2)c1
- IC50 [1]: > 10000 nM
- IC50 [2]: > 10000 nM
- IC50 [3]: > 10000 nM
- IC50 [4]: > 10000 nM
- IC50 [5]: > 10000 nM
- viability, T/C [8]: 96%
- viability, T/C [9]: 99.5%
- viability, T/C [26]: 98.4%
- viability, T/C [27]: 103%
- viability, T/C [28]: 118%
- viability, T/C [29]: 153%
- viability, T/C [12]: 98.7%
- viability, T/C [13]: 94.3%
- viability, T/C [30]: 109%
- viability, T/C [31]: 111%
- viability, T/C [32]: 131%
- viability, T/C [33]: 129%
- viability, T/C [16]: 94.1%
- viability, T/C [17]: 102%
- viability, T/C [34]: 120%
- viability, T/C [35]: 114%
- viability, T/C [36]: 104%
- viability, T/C [37]: 148%
- viability, T/C [20]: 101%
- viability, T/C [21]: 104%
- viability, T/C [38]: 127%
- viability, T/C [39]: 115%
- viability, T/C [40]: 118%
- viability, T/C [41]: 145%
- viability, T/C [24]: 83.1%
- viability, T/C [25]: 91.8%
- viability, T/C [42]: 106%
- viability, T/C [43]: 97.7%
- viability, T/C [44]: 104%
- viability, T/C [45]: 143%

Compound: Nc1ccccc1NC(=O)c1ccc(CNC(=O)OCc2cccnc2)cc1 + Cc1ccccc1N=Nc1ccc(NC(=O)c2ccnn2C)c(C)c1
- IC50 [1]: 787 nM
- IC50 [2]: 856 nM
- IC50 [3]: 992 nM
- IC50 [4]: 765 nM
- IC50 [5]: 1200 nM
- viability, T/C [8]: 88%
- viability, T/C [9]: 78.3%
- viability, T/C [26]: 71.9%
- viability, T/C [27]: 44.8%
- viability, T/C [28]: 15%
- viability, T/C [29]: 0.96%
- viability, T/C [12]: 85%
- viability, T/C [13]: 83.9%
- viability, T/C [30]: 73.3%
- viability, T/C [31]: 44.9%
- viability, T/C [32]: 18.5%
- viability, T/C [33]: 1%
- viability, T/C [16]: 85.8%
- viability, T/C [17]: 89.8%
- viability, T/C [34]: 74.9%
- viability, T/C [35]: 48.6%
- viability, T/C [36]: 20.7%
- viability, T/C [37]: 1.92%
- viability, T/C [20]: 91.9%
- viability, T/C [21]: 80.8%
- viability, T/C [38]: 70.5%
- viability, T/C [39]: 44%
- viability, T/C [40]: 18.5%
- viability, T/C [41]: 1.99%
- viability, T/C [24]: 88.8%
- viability, T/C [25]: 94.7%
- viability, T/C [42]: 72.7%
- viability, T/C [43]: 55.2%
- viability, T/C [44]: 26.5%
- viability, T/C [45]: 3.32%

Compound: Cn1ncnc1C1c2n[nH]c(=O)c3cc(F)cc(c23)NC1c1ccc(F)cc1 (configuration not stated)
- viability, T/C (compound 0.000316 µM): 120% and 100% and 104%
- viability, T/C (compound 0.001 µM): 104% and 99.4% and 98.5%
- viability, T/C (compound 0.00316 µM): 114% and 102% and 99.6%
- viability, T/C (compound 0.01 µM): 92.6% and 105% and 106%
- viability, T/C (compound 0.0316 µM): 94.1% and 106% and 103%
- viability, T/C (compound 0.1 µM): 114% and 102% and 104%
- IC50 (curve of compound): > 100 nM

Compound: NS(=O)(=O)OCC1CC(n2ccc3c(NC4CCc5ccccc54)ncnc32)CC1O (configuration not stated)
- viability, T/C (compound 0.0316 µM): 78.8% and 89.8% and 79.4%
- viability, T/C (compound 0.1 µM): 71.8% and 85.1% and 80.3%
- viability, T/C (compound 0.316 µM): 92% and 82% and 79.9%
- viability, T/C (compound 1 µM): 52.6% and 59.9% and 65.8%
- viability, T/C (compound 3.16 µM): 74.1% and 65.6% and 55.6%
- viability, T/C (compound 10 µM): 69.5% and 70.9% and 55.7%
- IC50 (curve of compound): > 10000 nM

Compound: Nc1ncn(C2CC(O)C(CO)O2)c(=O)n1 (configuration not stated) + CC(CO)NC(=O)c1cc(-c2ccc(Cl)cc2)nn(-c2cnn(C)c2)c1=O
- IC50 [1]: > 1000 nM
- IC50 [2]: > 1000 nM
- IC50 [3]: > 1000 nM
- IC50 [4]: > 1000 nM
- IC50 [5]: > 1000 nM
- viability, T/C [6]: 112%
- viability, T/C [7]: 117%
- viability, T/C [8]: 105%
- viability, T/C [9]: 106%
- viability, T/C [26]: 120%
- viability, T/C [27]: 126%
- viability, T/C [10]: 107%
- viability, T/C [11]: 116%
- viability, T/C [12]: 114%
- viability, T/C [13]: 107%
- viability, T/C [30]: 114%
- viability, T/C [31]: 120%
- viability, T/C [14]: 120%
- viability, T/C [15]: 118%
- viability, T/C [16]: 128%
- viability, T/C [17]: 108%
- viability, T/C [34]: 110%
- viability, T/C [35]: 115%
- viability, T/C [18]: 126%
- viability, T/C [19]: 130%
- viability, T/C [20]: 120%
- viability, T/C [21]: 104%
- viability, T/C [38]: 121%
- viability, T/C [39]: 115%
- viability, T/C [22]: 141%
- viability, T/C [23]: 119%
- viability, T/C [24]: 137%
- viability, T/C [25]: 114%
- viability, T/C [42]: 133%
- viability, T/C [43]: 116%

Compound: CC1(C)CCC(CN2CCN(c3ccc(C(=O)NS(=O)(=O)c4ccc(NCC5CCOCC5)c([N+](=O)[O-])c4)c(Oc4cnc5[nH]ccc5c4)c3)CC2)=C(c2ccc(Cl)cc2)C1 + Cc1ccccc1N=Nc1ccc(NC(=O)c2ccnn2C)c(C)c1
- IC50 [1]: > 10000 nM
- IC50 [2]: > 10000 nM
- IC50 [3]: > 10000 nM
- IC50 [4]: > 10000 nM
- IC50 [5]: > 10000 nM
- viability, T/C [8]: 111%
- viability, T/C [9]: 109%
- viability, T/C [26]: 109%
- viability, T/C [27]: 97%
- viability, T/C [28]: 115%
- viability, T/C [29]: 66%
- viability, T/C [12]: 101%
- viability, T/C [13]: 106%
- viability, T/C [30]: 99.9%
- viability, T/C [31]: 102%
- viability, T/C [32]: 108%
- viability, T/C [33]: 74.9%
- viability, T/C [16]: 100%
- viability, T/C [17]: 107%
- viability, T/C [34]: 108%
- viability, T/C [35]: 102%
- viability, T/C [36]: 102%
- viability, T/C [37]: 75.5%
- viability, T/C [20]: 104%
- viability, T/C [21]: 111%
- viability, T/C [38]: 107%
- viability, T/C [39]: 104%
- viability, T/C [40]: 104%
- viability, T/C [41]: 67.2%
- viability, T/C [24]: 95.6%
- viability, T/C [25]: 99.2%
- viability, T/C [42]: 100%
- viability, T/C [43]: 99.8%
- viability, T/C [44]: 100%
- viability, T/C [45]: 74.6%
